{"source": "paper PMC3165048", "about": "(Chemistry & biology, 2010)", "system": "M. tuberculosis knock-in strains overexpressing MtMetAP1a or MtMetAP1c, wild-type and control strains", "assay_type": "cell-based, M. tuberculosis CDC1551", "data": [{"smiles": "O=C1C(Cl)=C(Cl)C(=O)c2ccccc21", "note": "[Compound 4, 2,3-dichloro-1,4-naphthoquinone]", "values": [{"measurement": "Growth of MtMetAP1a knock-in strain in the presence of inhibitor", "result": "gained resistance"}, {"measurement": "Growth of MtMetAP1c knock-in strain in the presence of inhibitor", "result": "gained resistance"}, {"measurement": "Growth of wild-type and control M. tuberculosis strains in the presence of inhibitor", "result": "inhibited"}]}]}
